Laboratory results reported in ChEMBL document CHEMBL5032522, “N-2-(phenylamino) benzamide derivatives as novel anti-glioblastoma agents: Synthesis and biological evaluation” (Eur J Med Chem, 2021).
Calls of active or inactive are those of the source. The calls are words filed in the database; no cut-off is given here.

Key:
[1] = tested on: U-251; assay: Antiproliferative activity against human U-251 cells assessed as inhibition of cell growth measured after 72 hrs by CCK-8 assay; type: functional, cell-based; details: U-251, 72 h
[2] = biological target: T1, DNA topoisomerase 1 (Homo sapiens, UniProt P11387); assay: Inhibition of human topoisomerase I using DNA pBR322 as substrate assessed as DNA relaxation incubated for 45 mins by ethidium bromide staining based agarose gel electrophoresis
T1 sequence (P11387 whole entry): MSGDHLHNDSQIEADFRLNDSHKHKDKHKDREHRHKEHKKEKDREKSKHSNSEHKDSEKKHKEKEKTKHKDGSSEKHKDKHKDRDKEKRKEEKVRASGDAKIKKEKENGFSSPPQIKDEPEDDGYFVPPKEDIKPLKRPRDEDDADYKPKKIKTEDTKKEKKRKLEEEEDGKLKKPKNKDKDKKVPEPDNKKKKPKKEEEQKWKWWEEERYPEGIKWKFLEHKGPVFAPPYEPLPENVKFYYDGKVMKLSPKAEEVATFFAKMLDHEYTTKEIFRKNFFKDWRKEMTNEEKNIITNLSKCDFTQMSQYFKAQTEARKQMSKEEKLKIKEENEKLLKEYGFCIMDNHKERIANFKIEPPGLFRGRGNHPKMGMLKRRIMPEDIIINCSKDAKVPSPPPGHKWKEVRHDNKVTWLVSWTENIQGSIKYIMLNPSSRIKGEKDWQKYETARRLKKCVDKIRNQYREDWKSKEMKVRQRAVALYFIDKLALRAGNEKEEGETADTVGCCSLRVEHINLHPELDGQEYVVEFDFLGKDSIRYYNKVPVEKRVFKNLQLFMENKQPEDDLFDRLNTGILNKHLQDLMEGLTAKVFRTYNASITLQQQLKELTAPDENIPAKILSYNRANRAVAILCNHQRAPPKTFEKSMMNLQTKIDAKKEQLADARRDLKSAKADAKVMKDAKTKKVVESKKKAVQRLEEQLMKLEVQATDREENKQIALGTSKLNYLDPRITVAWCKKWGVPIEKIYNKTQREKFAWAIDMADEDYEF

[3] = tested on: C6; assay: Antiproliferative activity against rat C6 cells assessed as inhibition of cell growth measured after 72 hrs by CCK-8 assay; type: functional, cell-based; details: C6, 72 h
[4] = biological target: T2, Prostaglandin G/H synthase 2 (Homo sapiens, UniProt P35354); assay: Inhibition of human recombinant COX-2 using arachidonic acid as substrate preincubated 10 mins followed by substrate addition and measured after 2 mins by ELISA
T2 sequence (P35354 whole entry): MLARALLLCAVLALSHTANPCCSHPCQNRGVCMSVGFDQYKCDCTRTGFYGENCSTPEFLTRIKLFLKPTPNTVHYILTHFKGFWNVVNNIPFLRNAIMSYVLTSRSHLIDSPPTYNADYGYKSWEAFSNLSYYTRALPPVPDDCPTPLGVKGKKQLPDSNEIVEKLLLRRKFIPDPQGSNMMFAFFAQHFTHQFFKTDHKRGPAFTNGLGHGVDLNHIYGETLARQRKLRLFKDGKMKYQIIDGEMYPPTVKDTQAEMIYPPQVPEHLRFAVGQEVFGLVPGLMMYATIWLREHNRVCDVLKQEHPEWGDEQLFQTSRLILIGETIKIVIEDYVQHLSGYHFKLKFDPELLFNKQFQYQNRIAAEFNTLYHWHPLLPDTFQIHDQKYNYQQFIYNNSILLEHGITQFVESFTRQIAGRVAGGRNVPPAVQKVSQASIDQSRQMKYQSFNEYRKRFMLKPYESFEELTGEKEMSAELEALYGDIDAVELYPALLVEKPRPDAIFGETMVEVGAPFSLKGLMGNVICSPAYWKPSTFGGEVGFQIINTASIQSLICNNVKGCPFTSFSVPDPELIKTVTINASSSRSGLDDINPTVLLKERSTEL

[5] = tested on: U-87 MG; assay: Antiproliferative activity against human U-87 MG cells assessed as inhibition of cell growth measured after 72 hrs by CCK-8 assay; type: functional, cell-based, U-87MG ATCC
[6] = biological target: T3, Prostaglandin G/H synthase 2 (Rattus norvegicus) (UniProt P35355); assay: In vivo inhibition of COX2 in ip dosed orthotopic Sprague-Dawley rat model inoculated with C6 cells assessed as reduction in PGE2 production by ELISA; type: functional, organism-based
T3 sequence (whole entry): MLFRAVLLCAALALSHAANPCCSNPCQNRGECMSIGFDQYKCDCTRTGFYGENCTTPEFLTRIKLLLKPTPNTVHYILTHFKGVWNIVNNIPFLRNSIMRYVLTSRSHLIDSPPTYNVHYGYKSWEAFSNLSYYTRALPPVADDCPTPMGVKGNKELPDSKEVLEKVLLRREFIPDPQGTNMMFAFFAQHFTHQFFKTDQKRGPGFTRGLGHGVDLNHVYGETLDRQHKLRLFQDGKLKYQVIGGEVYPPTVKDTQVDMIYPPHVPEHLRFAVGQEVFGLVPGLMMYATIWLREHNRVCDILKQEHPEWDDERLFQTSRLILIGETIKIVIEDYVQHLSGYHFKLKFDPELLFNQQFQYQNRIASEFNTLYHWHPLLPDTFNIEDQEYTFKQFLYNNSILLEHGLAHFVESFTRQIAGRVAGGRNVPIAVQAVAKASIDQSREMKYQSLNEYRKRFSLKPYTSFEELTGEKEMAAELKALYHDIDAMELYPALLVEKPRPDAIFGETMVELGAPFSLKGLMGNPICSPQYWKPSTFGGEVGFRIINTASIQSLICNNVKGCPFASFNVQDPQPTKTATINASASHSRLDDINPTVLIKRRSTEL

[7] = Toxicity in Sprague-Dawley rat inoculated with C6 cells assessed as reduction in body weight at 50 mg/kg, ip bid administered for 14 days; type: organism-based; details: in vivo, 336 h, time 14 day
[8] = tested on: U-251; assay: Inhibition of cell migration in human U-251 cells incubated for 24 hrs by crystal violet staining based light microscopic analysis; type: functional
[9] = tested on: U-87 MG; assay: Inhibition of cell invasion in human U-87 MG cells incubated for 24 hrs by crystal violet staining based light microscopic analysis; type: functional; details: U-87MG ATCC
[10] = tested on: U-87 MG; assay: Inhibition of cell migration in human U-87 MG cells incubated for 24 hrs by crystal violet staining based light microscopic analysis; type: functional; details: U-87MG ATCC
[11] = biological target: T4, DNA topoisomerase 1 (Homo sapiens) (UniProt P11387); assay: Inhibition of human topoisomerase I using DNA pBR322 as substrate assessed as DNA intercalation at 100 uM incubated for 30 mins by ethidium bromide staining based agarose gel electrophoresis method
T4 sequence (whole entry): T1 sequence (P11387 whole entry)

[12] = tested on: U-251; assay: Inhibition of cell invasion in human U-251 cells incubated for 24 hrs by crystal violet staining based light microscopic analysis; type: functional

Row | SMILES | IC50 [1] [µM] | IC50 [2] [µM] | IC50 [3] [µM] | IC50 [4] [µM] | IC50 [5] [µM] | inhibition [6] | Activity [7] | inhibition [8] | inhibition [9] | inhibition [10] | inhibition [11] | inhibition [12]
1 | COc1ccc(NC(=O)c2ccccc2Nc2cccc(C(F)(F)F)c2)cc1 | > 200 | > 125 | 99.1 | > 150 | 142 | – | – | – | – | – | – | –
2 | COc1ccc(NC(=O)c2ccccc2Nc2cccc(C)c2C)cc1 | 138 | > 125 | > 200 | > 150 | 73.5 | – | – | – | – | – | – | –
3 | CSc1ccc(NC(=O)c2ccccc2Nc2cccc(C(F)(F)F)c2)cc1 | 92.4 | > 125 | > 200 | > 150 | > 200 | – | – | – | – | – | – | –
4 | CC[C@@]1(O)C(=O)OCc2c1cc1n(c2=O)Cc2cc3c(CN(C)C)c(O)ccc3nc2-1 [TOPOTECAN] | 0.37 | – | 5.8 | – | 0.06 | – | – | – | – | – | – | –
5 | COc1ccc(NC(=O)c2ccccc2Nc2cccc(Cl)c2)cc1 | 165 | 85.7 | > 200 | > 150 | > 200 | – | – | – | – | – | – | –
6 | COc1ccc(NC(=O)c2ccccc2Nc2cccc(Cl)c2C)cc1OC | > 200 | > 125 | 44 | 92.6 | 99.8 | – | – | – | – | – | – | –
7 | COc1cc(NC(=O)c2ccccc2Nc2cccc(C(F)(F)F)c2)cc(OC)c1OC | 50.7 | > 125 | 75.2 | > 150 | 52.1 | – | – | – | – | – | – | –
8 | Cc1c(Cl)cccc1Nc1ccccc1C(=O)O [TOLFENAMIC ACID] | > 100 | – | > 100 | – | > 100 | – | – | – | – | – | – | –
9 | O=C(Nc1ccc2c(c1)OCO2)c1ccccc1Nc1cccc(C(F)(F)F)c1 | 12.9 | 105 | 15.6 | 105 | 26 | – | – | – | – | – | – | –
10 | COc1ccc(NC(=O)c2ccccc2Nc2cccc(C(F)(F)F)c2)cc1OC | 86.2 | > 125 | 36.5 | > 150 | 72.4 | – | – | – | – | – | – | –
11 | COc1ccc(NC(=O)c2cccnc2Nc2cccc(Cl)c2C)cc1 | > 200 | 61.2 | > 200 | > 150 | 187 | – | – | – | – | – | – | –
12 | COc1ccc(CCNC(=O)c2ccccc2Nc2ccccc2)cc1 | > 200 | 107 | 130 | > 150 | > 200 | – | – | – | – | – | – | –
13 | COc1ccc(NC(=O)c2ccccc2Nc2cccc(Cl)c2C)c(OC)c1 | > 200 | 70.9 | > 200 | 115 | > 200 | – | – | – | – | – | – | –
14 | COc1ccc(NC(=O)c2ccccc2Nc2ccccc2)cc1 | 184 | > 125 | > 200 | > 150 | > 200 | – | – | – | – | – | – | –
15 | COc1ccc(CCCNC(=O)c2ccccc2Nc2ccccc2)cc1 | > 200 | > 125 | > 200 | > 150 | > 200 | – | – | – | – | – | – | –
16 | COc1ccc(CNC(=O)c2ccccc2Nc2ccccc2)cc1 | > 200 | > 125 | > 200 | 17.4 | > 200 | – | – | – | – | – | – | –
17 | Cn1nnc2c(C(N)=O)ncn2c1=O [TEMOZOLOMIDE] | – | – | – | – | – | inactive | Toxic | – | – | – | – | –
18 | COc1ccc(NC(=O)c2ccccc2Nc2cccc(C)c2C)cc1OC | > 200 | 85.6 | 169 | 48.1 | 144 | – | – | – | – | – | – | –
19 | c1ccc(-c2cc(-c3ccccc3)c3ncccc3n2)cc1 | > 200 | > 125 | 103 | > 150 | > 200 | – | – | Dose-Dependent Effect | Dose-Dependent Effect | Dose-Dependent Effect | inactive | Dose-Dependent Effect
20 | COc1ccc(NC(=O)c2ccccc2NCc2ccccc2)cc1 | > 200 | > 125 | > 200 | > 150 | > 200 | – | – | – | – | – | – | –
21 | COc1cc(NS(C)(=O)=O)ccc1Nc1c2ccccc2nc2ccccc12 | – | – | – | – | – | – | – | – | – | – | Active | –
22 | COc1ccc(NC(=O)c2cccnc2Nc2cccc(C(F)(F)F)c2)cc1 | > 200 | 108 | > 200 | > 150 | > 200 | – | – | – | – | – | – | –
23 | COc1cc(NC(=O)c2ccccc2Nc2cccc(Cl)c2C)cc(OC)c1OC | 178 | 50.9 | > 200 | 117 | 54.5 | – | – | – | – | – | – | –
